# According to patent publication US20180200279A1, “INHIBITION OF HSV-1-ASSOCIATED CORNEAL NEOVASCULARIZATION USING INHIBITORS OF CYCLIN-DEPENDENT KINASE 9” (XAVIER UNIVERSITY OF LOUISIANA, priority 2014, published 2018):
# How the values were obtained:
# [1] = system: chick embryo chorioallantoic membrane; test: Ex ovo chick chorioallantoic membrane (CAM) collagen onplant angiogenesis assay; assay type: in vivo; settings: 100 nM flavopiridol in bFGF/VEGF-containing collagen plugs; 3 days
# Source text: After 3 days, CAMs were photographed, and angiogenesis was quantified by counting the number of grids positive for new blood vessel growth in a blinded manner. Results are expressed as number of grids positive for blood vessels and as percent positive grids.
# [2] = system: HSV-1 17syn+; test: Real-time PCR of HSV-1 DNA on ocular swabs of infected mice; assay type: in vivo, Balb/c mice; settings: day 25 post infection; 1% TFT, 0.01% flavopiridol, 0.1% DRB drops; n=10
# Procedure: SYBR Green semi-quantitative real-time PCR was performed on DNA samples eluted from swabs taken from mouse eyes on days 2, 4, 7, 9, 11, 14, 18 and 25 post infection with 5×10^5 PFU/eye HSV-1 17syn+ using primers specific for HSV-1 DNA polymerase.
# All experimental procedures were performed in accordance with the ARVO Resolution for the Use of Animals in Ophthalmic and Vision Research and were approved by the Xavier University Animal Care and Use Committee. Female 20 g Balb/c mice were obtained from Charles River Laboratories. Mice were allowed to equilibrate to their surroundings for 2 weeks and then were anesthetized by intramuscular administration of xylazine (6.6 mg/kg of body weight) and ketamine (100 mg/kg of body weight). The corneas were mildly scarified in a 2×2 cross-hatch pattern and each cornea was inoculated with 5×10^5 PFU of strain HSV 17syn+. […] DNA was collected by swabbing the eyes with filter paper, and the eyes were examined with a slit-lamp on PI days 2, 4, 7, 9, 11, 14, 18 and 25. Average neovascularization/eye was scored using the formula A=(C×0.4×L×π)/2 where C=clock hours of neovascularization; 30° arc is 1 (360° circle with a total of 12); L is the length of the longest neovessel, and A is the area of neovascularization. Students scored (by eye) the animals on the days indicated in a masked fashion using the slit-lamp, and images representative of each group were taken. Clinical scores based on epiphora, inflammation and discharge were calculated where 0=no manifestations, +1=slight manifestations, +2=moderate manifestations, and +3=severe manifestations. […] Ex ovo chick embryo chorioallantoic membrane collagen angiogenesis assays were performed using methods as previously described (Deryugina E I and Quigley J P. Chapter 2. Chick embryo chorioallantoic membrane models to quantify angiogenesis induced by inflammatory and tumor cells or purified effector molecules. Methods Enzymol. 444:21-41. 2008). […]
# [3] = system: HUVEC; test: Endothelial cell Matrigel transwell invasion assay; assay type: cell-based, human; settings: 25 ng/mL VEGF and bFGF
# Procedure: After 12-16 hours, tubules were counted at low magnification and percentage of inhibition was expressed using VEGF control wells as 100%.
# Migration/invasion assays were performed using 24-well, 8-μm pore size BD Biocoat Matrigel migration chambers according to the manufacturer's instructions (BD Biosciences, San Jose, Calif.). […] Cells were allowed to migrate for 16 hours at 37° C. Following incubation, cotton swabs were used to remove the cells on the top surface of the membrane, and cells on the bottom side of the membrane were fixed with 4% formaldehyde for 30 min, washed 3-5 times with PBS, and then stained with 10 μM Calcein AM (migration) or 10 μM Celltracker green-labeled (invasion). Migrating or invading cells from three repeats in two independent experiments were then counted using an inverted microscope. Data are expressed as mean percent migration and mean percent invading cells compared with untreated cells±SEM.
# In addition to migration, new blood vessel formation requires that endothelial cells invade through extracellular matrix (ECM) surrounding the existing vasculature. Inhibition of invasion therefore inhibits angiogenesis. […] Celltracker green-labeled HUVEC that successfully degraded the Matrigel and crossed into the lower chamber containing 25 ng/mL VEGF and bFGF in the presence or absence of FP were counted and expressed as a percent of untreated control cells (FIG. 2B).
# [4] = system: HSV-1; test: In vitro viral inhibition (plaque) assay in CV-1 cells; assay type: cell-based
# Procedure: Numbers of plaque-forming units (PFU) were determined in a standard plaque assay procedure using CV-1 cells.
# The HSV-1 strain employed was 17 syn+. Before inoculation, numbers of plaque-forming units (PFU) were determined in a standard plaque assay procedure using CV-1 cells. Pooled primary human umbilical vein endothelial cells (HUVEC) were obtained from Lonza (Basel, Switzerland) and were cultured in Medium 199 (Life Technologies, Carlsbad, Calif.) supplemented with 20% heat-inactivated FBS, penicillin G (100 U/ml), streptomycin ([…]), 2 mM L-glutamine and 1:100 endothelial cell growth supplement (ECGS, BD Biosciences, Bedford, Mass.) on tissue culture plates coated with 0.2% gelatin up to passage 6. Cells were sub-passaged or harvested when they reached ˜80% confluence. For periods of serum-deprivation, HUVEC were incubated for 4 or 16 hours in serum-starvation medium (SSM) containing Medium 199 without phenol red or ECGS but containing 0.5% FBS unless otherwise indicated. In vitro viral inhibition assays with CV-1 cells were performed as previously described (Gong E Y. Methods for screening and profiling inhibitors of herpes simplex viruses. Methods Mol Biol. 1030:303-313. 2013).
compound,measurement,setting,value
CN1CC[C@H](c2c(O)cc(O)c3c(=O)cc(-c4ccccc4Cl)oc23)[C@H](O)C1 [flavopiridol],angiogenesis: grids positive for newly formed blood vessels,[1],14.33±2.10
same,quantitative real-time PCR score (HSV-1 DNA) on ocular swabs,[2],0.039±0.176
same,invading cells as percent of untreated control,[3]; 50 nM flavopiridol,67.08%±6.50
same,invading cells as percent of untreated control,[3]; 100 nM flavopiridol,59.74%±6.98
same,invading cells as percent of untreated control,[3]; 200 nM flavopiridol,32.64%±8.58
same,concentration at which HSV-1 replication was significantly inhibited,[4],250 nM
same,IC50,"[4]; Human alphaherpesvirus 1, read-out: average IC50 of HSV-1 replication",100 nM
